The values that follow come from patent US20050245489A1, “Chromene-containing compounds with anti-tubulin and vascular targeting activity” (priority 2004, published 2005).

Assay [1] concerns MCF-7 (breast) cancer cell line. Nature of the assay: In vitro growth inhibition (SRB), MCF-7. The format is cell-based, human. The settings on record: for GI50: Homo sapiens, MCF7, 48 hours. On the procedure: (§1) Newly prepared compounds were evaluated for cytotoxic activity against a variety of cell lines derived from human tumors using an assay system similar to the National Cancer Institute procedure previously described (Monks et al, J. Natl. Cancer Inst., 1991). Briefly, the cell suspensions, diluted according to the particular cell type and the expected target cell density (5,000-40,000 cells per well based on cell growth characteristics), were added by pipet (100 μl) to 96-well microtiter plates. Inoculates were allowed a preincubation time of 24-28 hours at 37° C. for stabilization. Incubation with the inhibitor compounds lasted for 48 hours in 5% CO2 atmosphere and 100% humidity. Determination of cell growth was performed by in situ fixation of cells, followed by staining with a protein-binding dye sulforhodamine B (SRB), which binds to the basic amino acids of cellular macromolecules. The solubilized stain was measured spectrophotometrically.
(§2) Several compounds were evaluated for cytotoxic activity against […] P388 leukemia cell lines. The effective dose or ED50 value (defined as the effective dosage required to inhibit 50% of cell growth) was measured. These and additional compounds were evaluated in terms of growth inhibitory activity against several other human cancer cell lines including: central nervous system (“CNS”, SF-268), pancreas (BXPC-3), non-small cell lung cancer (“lung-NSC”, NCI-H460), breast (MCF-7), colon (KM20L2), ovarian (OVCAR-3), and prostate (DU-145). The growth inhibition GI50 (defined as the dosage required to inhibit tumor cell growth by 50%) is listed for each cell line.

Assay [2] has as its system DU-145 (prostate) cancer cell line. Briefly: In vitro growth inhibition (SRB), DU-145. The format is cell-based, human. The note with it: 48 hours; for GI50: Homo sapiens. As for the experimental part:
as §1, §2

Assay [3] has as its system MHEC-5T hemangioendothelioma tumor. Nature of the assay: Inhibition of tumor blood flow, Fluorescent Bead Assay. The note with it: 24 hours post-treatment, vessel area per tumor tissue area as percentage of control. The assay is classed as in vivo, SCID mice. As for the experimental part:
The antivascular effects of the chromene phosphate prodrug were assessed in tumor-bearing mice using a Fluorescent Bead Assay. A MHEC-5T hemangioendothelioma tumor model was established by subcutaneous injection of 0.5×10^6 cultured transformed cell murine myocardial vascular endothelial cell line (“MHEC5-T”) cells into the right flank of Fox Chase CB-17 Severe Combined Immunodeficient (“SCID”) mice. […] At 24 hours post-treatment, mice were injected intravenously with 0.25 ml of diluted FluoSphere beads (1:6 in physiological saline) in the tail vein, sacrificed after 3 minutes, and tumor was excised for cryosectioning. Tumor cryosections at a thickness of 8 um were directly examined using quantitative fluorescent microscopy. Blood vessels were indicated by blue fluorescence from injected beads. For quantification, image analysis of 3 sections from three tumors treated in each group were examined and vascular shutdown was expressed as vessel area (mm^2) per tumor tissue area (mm^2) as a percentage of the control (“% VAPM”).

For assay [4], the system named is KM20L2 (colon) cancer cell line. Nature of the assay: In vitro growth inhibition (SRB), KM20L2. The assay is classed as cell-based, human. The note with it: for GI50: Homo sapiens, KM-20L2, 48 hours. As for the experimental part: as §1, §2
Assay [5] has as its system BXPC-3 (pancreas) cancer cell line. Nature of the assay: In vitro growth inhibition (SRB), BXPC-3. The note with it: 48 hours; for GI50: Homo sapiens. The format is cell-based, human. As for the experimental part: as §1, §2
In assay [6] the test system is NCI-H460 (lung-NSC) cancer cell line. Nature of the assay: In vitro growth inhibition (SRB), NCI-H460. The assay is classed as cell-based, human. The settings on record: 48 hours; for GI50: Homo sapiens. As for the experimental part: as §1, §2
The subject of a further assay is P388 leukemia cell lines. Briefly: In vitro cytotoxicity (SRB) against P388 leukemia cell line. The assay is classed as cell-based, mouse. The settings on record: 48 hours incubation. As for the experimental part: as §1
Several compounds were evaluated for cytotoxic activity against […] P388 leukemia cell lines. […] These and additional compounds were evaluated in terms of growth inhibitory activity against several other human cancer cell lines including: central nervous system (“CNS”, SF-268), pancreas (BXPC-3), non-small cell lung cancer (“lung-NSC”, NCI-H460), breast (MCF-7), colon (KM20L2), ovarian (OVCAR-3), and prostate (DU-145). […]

The test system of assay [7] is SF-268 (CNS) cancer cell line. Nature of the assay: In vitro growth inhibition (SRB), SF-268. The format is cell-based, human. The settings on record: 48 hours; for GI50: Homo sapiens. As for the experimental part:
as §1, §2

Another assay concerns purified tubulin. Briefly: In vitro inhibition of tubulin polymerization. The settings on record: purified bovine brain tubulin 1.5 mg/ml, 15 min preincubation at 37° C., GTP-induced, 350 nm. The assay is classed as biochemical. As for the experimental part: IC50 values for tubulin polymerization were determined according to a previously described procedure (Bai et al., Cancer Research, 1996). Purified tubulin is obtained from bovine brain cells as previously described (Hamel and Lin, Biochemistry, 1984). Various amounts of inhibitor were preincubated for 15 minutes at 37° C. with purified tubulin. After the incubation period, the reaction was cooled and GTP was added to induce tubulin polymerization. Polymerization was then monitored in a Gilford spectrophotometer at 350 nm. The final reaction mixtures (0.25 ml) contained 1.5 mg/ml tubulin, 0.6 mg/ml microtubule-associated proteins (MAPs), 0.5 mM GTP, […], 4% DMSO and 0.1M 4-morpholineethanesulfonate buffer (MES, pH 6.4). IC50 is the amount of inhibitor needed to inhibit tubulin polymerization 50% with respect to the amount of […] that occurs in the absence of inhibitor.

In brackets after ≈: the same amount, converted by molar mass.

Regarding “3-(3′,4′,5′-Trimethoxybezoyl)-7-methoxy-2H-chromene-phosphate salt [Compound 7]”, the “GI50 for Cell Line MCF-7” value in [1] (48 hours) turned out to be 0.056 µg/mL. Besides, the “GI50 for Cell Line DU-145” value in [2] worked out at 0.18 µg/mL. Moreover, in assay [3] (10 mg/kg single i.p. dose), the “% VAPM at 10 mg/kg dose” value is listed as 57%. The “% VAPM at 100 mg/kg dose” value in assay [3] (100 mg/kg single i.p. dose) is 33%. Also, the “GI50 for Cell Line KM20L2” value in [4] (48 hours) was determined as 3.5 µg/mL. Further, the “GI50 for Cell Line BXPC-3” value in assay [5] was 0.44 µg/mL. The “GI50 for Cell Line NCI-H460” value in [6] amounted to 0.14 µg/mL. Besides, in the assay with P388 leukemia cell lines, the “ED50 for P-388 Cell Line” value turned out to be 0.173 µg/mL. For the same compound, the “GI50 for Cell Line SF-268” value in [7] came to 0.034 µg/mL.
As to `COc1ccc2c(c1O)OCC(C(=O)c1cc(OC)c(OC)c(OC)c1)=C2` [Compound 5, 3-(3′,4′,5′-Trimethoxybezoyl)-7-methoxy-8-hydroxy-2H-chromene], the GI50 (as a rule, the concentration that inhibits growth by half) in assay [1] was determined as 0.0055 µg/mL (≈ 0.0148 µM); in assay [2] it was 0.049 µg/mL (≈ 0.132 µM); in assay [4], 3.2 µg/mL (≈ 8.59 µM); in [5], 3.5 µg/mL (≈ 9.4 µM); in [6] it was 0.46 µg/mL (≈ 1.24 µM); in assay [7] it was 0.022 µg/mL (≈ 0.0591 µM).
Take `COc1ccc2c(c1)OCC(C(=O)c1cc(OC)c(OC)c(OC)c1)=C2` [Compound 8, 3-(3′, 4′, 5′-Trimethoxybenzoyl)-7-methoxy-2H-chromene]: the GI50 in [1] turned out to be 0.3 µg/mL (≈ 0.842 µM); in assay [2], 0.26 µg/mL (≈ 0.73 µM); in [4], 0.47 µg/mL (≈ 1.32 µM); in assay [5], 0.27 µg/mL (≈ 0.758 µM); in [6], 0.3 µg/mL (≈ 0.842 µM); in assay [7], 0.32 µg/mL (≈ 0.898 µM).
Turning to `COc1cc2c(cc1O)C=C(C(=O)c1cc(OC)c(OC)c(OC)c1)CO2` [Compound 9, 3-(3′, 4′, 5′-Trimethoxybenzoyl)-6-hydroxy-7-methoxy-2H-chromene], the GI50 in assay [1] came to 0.069 µg/mL (≈ 0.185 µM); in assay [2] it was 0.16 µg/mL (≈ 0.43 µM); in assay [4] it was 2.3 µg/mL (≈ 6.18 µM); in assay [5] it was 0.27 µg/mL (≈ 0.725 µM); in assay [6] it was 0.32 µg/mL (≈ 0.859 µM); in assay [7], 0.45 µg/mL (≈ 1.21 µM). In addition, the “ED50 for P-388 Cell Line” value in the assay with P388 leukemia cell lines was 0.25 µg/mL. Also, in the assay on purified tubulin, the IC50 (commonly the concentration at which inhibition is half-maximal) was in the range of 1 to 4 µM.
